Source: ChEMBL document CHEMBL1201862, “PubChem BioAssay data set” (2004)
Activity calls are given as the source filed them.

Tests used:
H4 = test: Luminescence Cell-Based Dose Response HTS to Identify Activators of 5'UTR Stem-Loop Driven Prion Protein mRNA Translation in H4 Neuroglioblastoma Cells. [Related pubchem assays: 1829 (Project Summary), 1814 (Primary HTS)]; format: functional; conditions: Homo sapiens
[1] = biological target: T1, Alkaline phosphatase, tissue-nonspecific isozyme (Homo sapiens, UniProt P05186)
T1 sequence (P05186 whole entry): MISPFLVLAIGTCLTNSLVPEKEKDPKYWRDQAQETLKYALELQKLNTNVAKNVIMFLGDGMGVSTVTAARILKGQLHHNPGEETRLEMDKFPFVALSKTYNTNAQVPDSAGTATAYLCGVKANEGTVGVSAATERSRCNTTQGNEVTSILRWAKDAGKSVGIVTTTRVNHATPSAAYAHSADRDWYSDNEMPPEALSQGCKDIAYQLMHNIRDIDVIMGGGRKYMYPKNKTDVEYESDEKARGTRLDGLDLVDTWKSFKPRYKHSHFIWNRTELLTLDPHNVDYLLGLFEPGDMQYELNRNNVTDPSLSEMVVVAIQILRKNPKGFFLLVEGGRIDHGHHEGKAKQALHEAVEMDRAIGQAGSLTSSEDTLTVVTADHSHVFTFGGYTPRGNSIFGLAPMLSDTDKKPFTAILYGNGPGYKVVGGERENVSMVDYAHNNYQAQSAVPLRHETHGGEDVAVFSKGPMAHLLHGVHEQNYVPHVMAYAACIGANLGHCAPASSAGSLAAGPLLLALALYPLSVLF

[2] = Luminescence Cell-Based Dose Response HTS to Identify Activators of Luciferase Translation or Activity in H4 […] Cells. [Related pubchem assays: 1829 (Project Summary), 1814 (Primary HTS)]; format: functional
Protein Rev = Protein Rev (Human immunodeficiency virus type 1 group M subtype B (isolate WMJ22)(HIV-1), UniProt P05866); test: inhibitors of Rev protein–RRE RNA complex – biochemical, protein-RNA interaction, dose response (AID 842); design: species or system Human immunodeficiency virus 1
Chain of Protein Rev (P05866 whole entry): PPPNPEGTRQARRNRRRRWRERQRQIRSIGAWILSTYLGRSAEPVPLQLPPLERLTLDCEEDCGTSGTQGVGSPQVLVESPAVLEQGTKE

[3] = biological target: T2, Eukaryotic translation initiation factor 2-alpha kinase 3 (Homo sapiens, UniProt Q9NZJ5); test: Dose response cell-based high-throughput screening assay to measure PERK inhibition. [Related pubchem assays: 1416 ]; format: functional
T2 sequence (Q9NZJ5 whole entry): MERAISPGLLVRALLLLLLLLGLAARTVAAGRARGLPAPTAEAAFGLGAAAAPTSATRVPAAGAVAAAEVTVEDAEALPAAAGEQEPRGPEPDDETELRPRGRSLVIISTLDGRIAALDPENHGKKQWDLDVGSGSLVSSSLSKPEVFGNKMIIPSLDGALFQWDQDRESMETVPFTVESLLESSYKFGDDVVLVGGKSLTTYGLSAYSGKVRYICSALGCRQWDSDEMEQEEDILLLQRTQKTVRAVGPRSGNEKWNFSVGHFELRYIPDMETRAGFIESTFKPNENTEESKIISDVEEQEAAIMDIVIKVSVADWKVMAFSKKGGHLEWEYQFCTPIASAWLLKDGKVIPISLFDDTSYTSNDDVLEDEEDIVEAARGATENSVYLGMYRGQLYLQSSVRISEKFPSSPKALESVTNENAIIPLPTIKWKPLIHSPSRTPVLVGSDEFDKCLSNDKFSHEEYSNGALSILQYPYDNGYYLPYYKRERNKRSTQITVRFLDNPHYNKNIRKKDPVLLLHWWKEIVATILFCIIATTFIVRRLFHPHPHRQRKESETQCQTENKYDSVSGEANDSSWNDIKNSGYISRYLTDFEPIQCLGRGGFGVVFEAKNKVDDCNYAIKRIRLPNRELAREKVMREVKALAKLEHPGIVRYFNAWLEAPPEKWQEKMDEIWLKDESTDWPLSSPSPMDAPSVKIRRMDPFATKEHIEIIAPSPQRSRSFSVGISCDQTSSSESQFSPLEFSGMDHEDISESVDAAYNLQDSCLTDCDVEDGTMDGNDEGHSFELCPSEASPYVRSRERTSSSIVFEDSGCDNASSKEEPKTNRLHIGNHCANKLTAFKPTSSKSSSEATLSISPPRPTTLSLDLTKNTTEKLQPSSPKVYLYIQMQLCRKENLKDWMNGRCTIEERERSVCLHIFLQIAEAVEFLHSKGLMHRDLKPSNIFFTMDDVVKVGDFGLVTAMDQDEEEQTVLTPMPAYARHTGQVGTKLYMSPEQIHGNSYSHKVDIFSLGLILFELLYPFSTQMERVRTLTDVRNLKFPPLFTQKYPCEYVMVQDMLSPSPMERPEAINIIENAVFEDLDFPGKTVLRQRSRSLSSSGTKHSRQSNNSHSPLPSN

[4] = biological target: T2, Eukaryotic translation initiation factor 2-alpha kinase 3; test: Counterscreen assay for PERK inhibitors: Dose response cell-based high throughput screening assay to measure inhibition of PERK at 6 hours. [Related pubchem assays: 1522, 1416 ]; format: functional
[5] = biological target: Mitochondrial peptide methionine sulfoxide reductase (Bos taurus, UniProt P54149); test: Absorbance-based biochemical high throughput dose response assay for activators of Methionine sulfoxide reductase A (MsrA).; format: functional
Chain of Mitochondrial peptide methionine sulfoxide reductase (P54149 whole entry): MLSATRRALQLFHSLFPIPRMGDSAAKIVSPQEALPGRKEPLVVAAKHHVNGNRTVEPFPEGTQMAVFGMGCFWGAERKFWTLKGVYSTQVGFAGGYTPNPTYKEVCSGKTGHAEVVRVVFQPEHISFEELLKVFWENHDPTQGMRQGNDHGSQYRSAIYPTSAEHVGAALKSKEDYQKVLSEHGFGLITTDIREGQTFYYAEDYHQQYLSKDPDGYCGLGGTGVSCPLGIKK

Beta-galactosidase = Beta-galactosidase (Escherichia coli, UniProt Q8VNN2); test: detection-enzyme interference by beta-gal modulators – biochemical, E. coli enzyme, set 3, artefact control for CCR6 antagonist project, dose response (AID 504712); format: functional
Streptococcus = test: Luminescence Microorganism-Based Dose Response Follow up to Identify Compounds Cytotoxic to Streptococcus. [Related pubchem assays: 1677 (Project Summary), 1915, 1914, 1902 (Retest at Dose), 1900 (Counter Screen), 1662 (Primary HTS)]; format: functional, organism-based
Ion channel NompC [6] = biological target: T3, Ion channel NompC (Danio rerio, UniProt Q7T1G6); test: activators of mucolipin-3 and mucolipin-2 – cell-based, […], Fura-2 profiling panel, panel member TRPN1 Dose Response (AID 2116)
T3 sequence (Q7T1G6 whole entry): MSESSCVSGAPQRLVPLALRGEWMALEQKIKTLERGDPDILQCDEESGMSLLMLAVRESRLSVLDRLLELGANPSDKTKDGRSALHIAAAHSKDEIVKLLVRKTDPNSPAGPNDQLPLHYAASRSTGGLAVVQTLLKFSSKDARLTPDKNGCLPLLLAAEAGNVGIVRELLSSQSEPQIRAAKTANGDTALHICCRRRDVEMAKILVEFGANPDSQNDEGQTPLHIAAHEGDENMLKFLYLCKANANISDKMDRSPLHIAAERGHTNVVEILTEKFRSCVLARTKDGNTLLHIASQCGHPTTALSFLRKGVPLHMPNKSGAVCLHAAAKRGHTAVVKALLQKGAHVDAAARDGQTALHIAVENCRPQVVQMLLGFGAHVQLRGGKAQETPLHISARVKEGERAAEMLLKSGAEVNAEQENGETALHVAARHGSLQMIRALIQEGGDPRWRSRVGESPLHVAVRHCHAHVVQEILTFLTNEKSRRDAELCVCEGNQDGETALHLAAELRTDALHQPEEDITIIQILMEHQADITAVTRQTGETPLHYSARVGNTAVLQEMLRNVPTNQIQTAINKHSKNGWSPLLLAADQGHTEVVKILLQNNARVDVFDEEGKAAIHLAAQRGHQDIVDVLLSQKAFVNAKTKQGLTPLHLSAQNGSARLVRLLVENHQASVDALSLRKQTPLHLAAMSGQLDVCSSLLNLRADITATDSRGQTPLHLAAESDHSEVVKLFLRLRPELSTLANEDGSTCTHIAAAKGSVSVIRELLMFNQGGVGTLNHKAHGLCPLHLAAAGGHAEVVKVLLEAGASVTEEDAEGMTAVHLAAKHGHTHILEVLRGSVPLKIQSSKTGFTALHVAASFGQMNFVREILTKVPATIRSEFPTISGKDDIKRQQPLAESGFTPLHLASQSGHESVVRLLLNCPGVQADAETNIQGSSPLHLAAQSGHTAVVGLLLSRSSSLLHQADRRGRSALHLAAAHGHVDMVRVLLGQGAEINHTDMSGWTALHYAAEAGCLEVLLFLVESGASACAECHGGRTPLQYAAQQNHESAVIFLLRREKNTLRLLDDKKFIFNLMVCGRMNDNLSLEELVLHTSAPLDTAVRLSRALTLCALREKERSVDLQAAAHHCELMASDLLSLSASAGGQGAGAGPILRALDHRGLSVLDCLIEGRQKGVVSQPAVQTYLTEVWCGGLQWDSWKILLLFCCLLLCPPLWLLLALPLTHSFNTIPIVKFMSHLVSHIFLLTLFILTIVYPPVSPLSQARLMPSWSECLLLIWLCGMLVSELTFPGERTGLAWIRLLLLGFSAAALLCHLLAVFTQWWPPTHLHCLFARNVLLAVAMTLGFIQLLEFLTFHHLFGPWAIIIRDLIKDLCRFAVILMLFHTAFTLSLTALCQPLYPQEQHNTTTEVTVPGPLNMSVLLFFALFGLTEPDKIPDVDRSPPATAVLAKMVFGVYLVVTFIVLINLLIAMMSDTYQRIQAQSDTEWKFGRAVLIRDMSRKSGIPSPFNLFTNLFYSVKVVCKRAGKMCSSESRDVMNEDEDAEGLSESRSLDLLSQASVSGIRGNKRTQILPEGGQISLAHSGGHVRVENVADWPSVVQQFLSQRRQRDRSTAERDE

Ion channel NompC [7] = biological target: T3, Ion channel NompC; test: Fluorescence counterscreen assay for TRPML3 agonists: dose response cell-based high-throughput screening assay to identify agonists of the transient receptor potential channel N1 (TRPN1). [Related pubchem assays: 1526, 1424, 1448 ]; format: functional
Mucolipin-3 [8] = biological target: T4, Mucolipin-3 (Homo sapiens, UniProt Q8TDD5); test: Dose response cell-based high-throughput screening assay for agonists of the transient receptor potential channel ML3 (TRPML3). [Related pubchem assays: 1526, 1424, 1448 ]; format: functional
T4 sequence (Q8TDD5 whole entry): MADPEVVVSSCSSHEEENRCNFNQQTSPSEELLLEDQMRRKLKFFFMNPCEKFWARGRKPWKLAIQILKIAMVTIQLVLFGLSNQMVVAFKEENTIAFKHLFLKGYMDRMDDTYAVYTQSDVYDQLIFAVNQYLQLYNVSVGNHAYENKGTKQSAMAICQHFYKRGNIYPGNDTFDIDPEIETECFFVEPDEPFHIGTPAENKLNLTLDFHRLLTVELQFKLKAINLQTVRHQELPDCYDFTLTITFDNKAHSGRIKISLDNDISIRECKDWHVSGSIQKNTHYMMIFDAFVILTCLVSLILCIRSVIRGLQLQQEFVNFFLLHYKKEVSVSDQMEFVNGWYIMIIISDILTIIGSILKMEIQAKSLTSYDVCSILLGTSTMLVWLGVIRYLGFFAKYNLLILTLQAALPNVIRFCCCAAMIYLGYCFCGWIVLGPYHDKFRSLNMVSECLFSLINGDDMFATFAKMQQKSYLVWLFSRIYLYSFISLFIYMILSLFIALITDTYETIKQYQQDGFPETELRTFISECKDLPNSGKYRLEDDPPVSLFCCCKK

Mucolipin-3 [9] = biological target: T4, Mucolipin-3; test: activators of mucolipin-3 and mucolipin-2 – cell-based, patch clamp, Fura-2 profiling panel, panel member TRPML3 Dose Response (AID 2116)
[10] = biological target: Melanin-concentrating hormone receptor 1 (Homo sapiens, UniProt Q99705); test: Late-stage fluorescence-based counterscreen for antagonists of the G-protein coupled receptor 7 (GPR7): cell-based dose response assay to identify antagonists of the melanin-concentrating hormone receptor 1 (MCHR1). [Related pubchem assays (depositor defined):AID1861, AID1880, AID1952, AID2148, AID2251, AID2257, AID485339]; format: functional;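 also: stimulated with 30 nM MCH peptide agonist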
Chain of Melanin-concentrating hormone receptor 1 (Q99705 whole entry): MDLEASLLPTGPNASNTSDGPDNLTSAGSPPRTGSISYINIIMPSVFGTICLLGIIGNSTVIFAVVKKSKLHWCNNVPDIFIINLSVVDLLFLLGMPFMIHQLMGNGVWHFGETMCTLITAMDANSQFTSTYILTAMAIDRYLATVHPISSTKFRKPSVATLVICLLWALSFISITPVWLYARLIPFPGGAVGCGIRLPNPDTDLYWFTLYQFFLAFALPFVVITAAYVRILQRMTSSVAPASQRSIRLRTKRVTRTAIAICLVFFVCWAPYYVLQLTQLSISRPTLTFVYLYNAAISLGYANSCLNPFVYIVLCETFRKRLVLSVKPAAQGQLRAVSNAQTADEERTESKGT

[11] = biological target: Glyceraldehyde-3-phosphate dehydrogenase (Homo sapiens, UniProt P04406)
Chain of Glyceraldehyde-3-phosphate dehydrogenase (P04406 whole entry): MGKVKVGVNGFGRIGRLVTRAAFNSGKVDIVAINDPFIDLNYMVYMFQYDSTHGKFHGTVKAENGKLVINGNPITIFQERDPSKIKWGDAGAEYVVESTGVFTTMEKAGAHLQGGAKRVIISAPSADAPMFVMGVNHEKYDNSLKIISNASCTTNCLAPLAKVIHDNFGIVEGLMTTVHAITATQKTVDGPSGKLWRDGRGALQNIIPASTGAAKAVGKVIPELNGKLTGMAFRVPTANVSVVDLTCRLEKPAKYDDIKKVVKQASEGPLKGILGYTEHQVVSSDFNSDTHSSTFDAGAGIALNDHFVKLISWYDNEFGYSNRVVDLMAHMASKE

[12] = biological target: T5, Tyrosine-protein phosphatase non-receptor type 7 (Homo sapiens, UniProt P35236); format: functional
T5 sequence (P35236 whole entry): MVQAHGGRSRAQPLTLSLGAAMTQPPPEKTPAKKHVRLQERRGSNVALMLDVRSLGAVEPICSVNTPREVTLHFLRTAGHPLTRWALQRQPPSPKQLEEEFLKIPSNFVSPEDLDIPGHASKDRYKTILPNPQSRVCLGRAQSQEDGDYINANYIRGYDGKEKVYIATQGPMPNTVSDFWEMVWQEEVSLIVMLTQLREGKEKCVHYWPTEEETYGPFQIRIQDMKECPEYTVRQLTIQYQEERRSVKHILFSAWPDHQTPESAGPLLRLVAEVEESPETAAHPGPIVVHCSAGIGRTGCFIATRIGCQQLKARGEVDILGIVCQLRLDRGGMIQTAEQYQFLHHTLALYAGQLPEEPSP

[13] = biological target: T6, Dual specificity protein phosphatase 6 (Rattus norvegicus, UniProt Q64346); format: functional
T6 sequence (Q64346 whole entry): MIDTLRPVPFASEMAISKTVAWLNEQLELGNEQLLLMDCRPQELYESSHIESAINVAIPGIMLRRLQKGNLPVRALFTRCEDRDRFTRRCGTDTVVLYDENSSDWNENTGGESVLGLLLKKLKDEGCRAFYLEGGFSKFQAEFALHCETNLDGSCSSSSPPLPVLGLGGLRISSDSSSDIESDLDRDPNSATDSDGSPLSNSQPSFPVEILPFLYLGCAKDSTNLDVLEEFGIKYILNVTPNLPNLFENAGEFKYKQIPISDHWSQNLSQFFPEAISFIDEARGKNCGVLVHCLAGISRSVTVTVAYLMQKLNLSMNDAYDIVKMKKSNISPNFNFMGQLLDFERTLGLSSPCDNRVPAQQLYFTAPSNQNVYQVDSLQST

[14] = biological target: T6, Dual specificity protein phosphatase 6

Compound: Cc1ccc(-c2cc(-c3ccccc3[N+](=O)[O-])[nH]n2)c(O)c1
- EC50 (H4): > 120 µM (not active)
- EC50 [1]: 80.2 µM (not active)
- EC50 [2]: 2.35 µM (inconclusive)

Compound: COc1cccc(Nc2nc(N)nc(-c3oc4ccccc4c3C)n2)c1
- IC50 (Protein Rev): > 79.4 µM (not active)

Compound: Cn1nccc1NC(=O)Nc1ccc(OC(F)(F)F)cc1
- EC50 [3]: > 55.7 µM (not active)
- EC50 [4]: > 55.7 µM (not active)

Compound: CS(=O)(=O)c1cc([N+](=O)[O-])c(Sc2nc3ccccc3[nH]2)c([N+](=O)[O-])c1
- EC50 [5]: > 104 µM (inactive)
- IC50 (Beta-galactosidase): > 66.6 µM (inactive)

Compound: CC(C)(C)N/N=C1\CC(c2ccccc2)Oc2ccccc21 (stereo not drawn)
- EC50 (Streptococcus): > 500 µM (not active)

Compound: O=S(=O)(Nc1ccccc1N1CCCCC1)c1ccc(Cl)s1
- EC50 (Ion channel NompC [6]): > 29.9 µM (inactive)
- EC50 (Ion channel NompC [7]): > 29.9 µM (not active)
- EC50 (Mucolipin-3 [8]): 0.872 µM (active)
- EC50 (Mucolipin-3 [9]): 0.62 µM (active)

Compound: COc1ccc(Oc2c(Cl)cnn(-c3ccc(C(C)C)c(C)c3)c2=O)cc1
- IC50 [10]: 2 µM (active)

Compound: Cn1c(SCC(=O)O)nc2sc3c(c2c1=O)CCC3
- IC50 [11]: > 100 µM (not active)
- IC50 [12]: > 100 µM (not active)
- IC50 [13]: > 100 µM (inactive)
- IC50 [14]: > 100 µM (inactive)
